In general, IC50 refers to the concentration that inhibits the measured activity by half.

Counter-ions that a name gives are not always drawn.

In one test the target is T1, human TRPV4 (Homo sapiens, UniProt Q9HBA0).
T1 construct: expressed in transfected cells; host or cells: BHK/AC9 cells transduced with BacMam virus
T1 sequence (Q9HBA0 whole entry): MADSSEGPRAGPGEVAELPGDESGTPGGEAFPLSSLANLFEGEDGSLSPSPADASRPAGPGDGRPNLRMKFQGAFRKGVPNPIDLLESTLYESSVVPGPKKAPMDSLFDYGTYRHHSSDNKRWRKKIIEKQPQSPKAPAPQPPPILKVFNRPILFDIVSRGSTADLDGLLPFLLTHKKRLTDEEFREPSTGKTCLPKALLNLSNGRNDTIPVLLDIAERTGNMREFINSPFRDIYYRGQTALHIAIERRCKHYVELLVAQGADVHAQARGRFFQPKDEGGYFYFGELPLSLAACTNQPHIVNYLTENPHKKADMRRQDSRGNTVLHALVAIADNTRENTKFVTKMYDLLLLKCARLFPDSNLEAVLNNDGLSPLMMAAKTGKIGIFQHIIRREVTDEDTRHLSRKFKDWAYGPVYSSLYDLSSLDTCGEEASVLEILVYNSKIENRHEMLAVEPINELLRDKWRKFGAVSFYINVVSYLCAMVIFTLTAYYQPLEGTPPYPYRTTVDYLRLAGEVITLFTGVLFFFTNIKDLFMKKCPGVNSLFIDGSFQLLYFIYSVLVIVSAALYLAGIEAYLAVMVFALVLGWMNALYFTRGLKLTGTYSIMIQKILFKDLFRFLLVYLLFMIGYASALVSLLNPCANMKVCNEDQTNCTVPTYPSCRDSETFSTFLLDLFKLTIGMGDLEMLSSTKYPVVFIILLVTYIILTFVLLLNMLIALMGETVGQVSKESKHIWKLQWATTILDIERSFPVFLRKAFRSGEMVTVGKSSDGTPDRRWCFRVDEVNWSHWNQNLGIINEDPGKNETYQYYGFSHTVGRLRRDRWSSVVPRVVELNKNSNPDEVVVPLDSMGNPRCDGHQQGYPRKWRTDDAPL
The test can be described thus: FLIPR assay for hTRPV4 expressed in BHK cells: inhibition of Agonist Compound-induced calcium signal. It is filed as cell-based. Conditions: IC50, hTRPV4 in BHK/AC9 cells, FLIPR calcium signal, agonist at EC80; reported as range class. The method in brief: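 Calcium influx through TRPV4 tracked by Fluo-4 fluorescence on FLIPR. Cells: BHK/AC9 transduced with BacMam-hTRPV4 at MOI 78, 24 h culture post-plating (15,000 cells/well). Dye loading: 2 μM Fluo-4 AM with 500 μM Brilliant Black quencher, 1-1.5 h, room temperature, dark.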
Consider `C[Si](C)(C)C#Cc1ccc(S(=O)(=O)N2C[C@H](Oc3ccc(C#N)c(F)c3)[C@](O)(CO)C2)c(C#N)c1` [Example 221, 4-(((3S,4R)-1-((2-cyano-4-((trimethylsilyl)ethynyl)phenyl)sulfonyl)-4-hydroxy-4-(hydroxymethyl)pyrrolidin-3-yl)oxy)-2-fluorobenzonitrile], for which the IC50 was 0.1 to 10 nM.

Still in this test, the particulars now being: hTRPV4 FLIPR assay; average in at least one set of experimental runs; read-out: average IC50.
As to `N#Cc1cc(C(F)(F)F)ccc1S(=O)(=O)N1C[C@H](Oc2ccc(Cl)cc2)[C@](O)(CO)C1` [Example 6, 2-(((3R,4S)-4-(4-chlorophenoxy)-3-hydroxy-3-(hydromethyl)pyrrolidin-1-yl)sulfonyl)-5-(trifluoromethyl)benzonitrile], the IC50 is 3 nM.

The same test, now with this note: hTRPV4 in BHK/AC9 cells, FLIPR calcium signal, agonist at EC80; reported as range class; read-out: IC50.
With `Cc1nc(C(F)(F)F)ccc1S(=O)(=O)N1C[C@H](Oc2ccc(C#N)c(F)c2)[C@](O)(CO)C1` [Example 83, 2-fluoro-4-(((3S,4R)-4-hydroxy-4-(hydroxymethyl)-1-((2-methyl-6-(trifluoromethyl)pyridin-3-yl)sulfonyl)pyrrolidin-3-yl)oxy)benzonitrile], the half-inhibitory concentration (IC50) lay in the range of 10 to 100 nM. On to `N#Cc1ccc(O[C@H]2CN(S(=O)(=O)c3ccc(Cl)c4nonc34)C[C@@]2(O)CO)cc1F` [Example 59, 4-(((3S,4R)-1-((7-chlorobenzo[c][1,2,5]oxadiazol-4-yl)sulfonyl)-4-hydroxy-4-(hydroxymethyl)pyrrolidin-3-yl)oxy)-2-fluorobenzonitrile], for which the half-inhibitory concentration (IC50) lay in the range of 10 to 100 nM.

For `C[C@H](O)[C@]1(O)CN(S(=O)(=O)c2ccc(C#N)cc2Cl)C[C@@H]1Oc1ccc(C#N)c(F)c1` [Example 205, 4-(((3S,4R)-1-((2-chloro-4-cyanophenyl)sulfonyl)-4-hydroxy-4-((S)-1-hydroxyethyl)pyrrolidin-3-yl)oxy)-2-fluorobenzonitrile], the IC50 is 0.1 to 10 nM. On the same count and under the same terms, the same measure for `N#Cc1ncc(O[C@H]2CN(S(=O)(=O)c3ccc(Cl)cc3Cl)C[C@@]2(O)CO)cc1F` [Example 36, 5-(((3S,4R)-1-((2,4-dichlorophenyl)sulfonyl)-4-hydroxy-4-(hydroxymethyl)pyrrolidin-3-yl)oxy)-3-fluoropicolinonitrile]: 0.1 to 10 nM; for `N#Cc1ccc(S(=O)(=O)N2C[C@H](Oc3ccc(C#N)c(F)c3)[C@](O)(CO)C2)c(C(F)(F)F)c1` [Example 68, 4-(((3S,4R)-1-((4-cyano-2-(trifluoromethyl)phenyl)sulfonyl)-4-hydroxy-4-(hydroxymethyl)pyrrolidin-3-yl)oxy)-2-fluorobenzonitrile]: 10 to 100 nM.

Regarding `N#Cc1ccc(O[C@H]2CN(S(=O)(=O)c3ccc(OC(F)(F)F)nc3)C[C@@]2(O)CN)cc1F` [Example 249, 4-(((3S,4S)-4-(aminomethyl)-4-hydroxy-1-((6-(trifluoromethoxy)pyridin-3-yl)sulfonyl)pyrrolidin-3-yl)oxy)-2-fluorobenzonitrile, Hydrochloride], the IC50 was in the range of 10 to 100 nM. Turning to `CCNC[C@]1(O)CN(S(=O)(=O)c2ccc(C(F)(F)F)cc2C#N)C[C@@H]1Oc1ccc(C#N)c(F)c1` [Example 238, 4-(((3S,4S)-1-((2-cyano-4-(trifluoromethyl)phenyl)sulfonyl)-4-((ethylamino)methyl)-4-hydroxypyrrolidin-3-yl)oxy)-2-fluorobenzonitrile, 2,2,2-trifluoroacetate], the IC50 fell in the range of 0.1 to 10 nM. As for `N#Cc1cc(OCC(F)(F)F)c(O[C@H]2CN(S(=O)(=O)c3ccccc3C#N)C[C@@]2(O)CO)cc1F` [Example 173, 4-(((3S,4R)-1-((2-cyanophenyl)sulfonyl)-4-hydroxy-4-(hydroxymethyl)pyrrolidin-3-yl)oxy)-2-fluoro-5-(2,2,2-trifluoroethoxy) benzonitrile], the IC50 lay within 0.1 to 10 nM. Still for that read-out and setting: in the case of `C[C@@H](O)[C@]1(O)CN(S(=O)(=O)c2ccc(C(F)(F)F)cc2C#N)C[C@@H]1Oc1ccc(C#N)c(F)c1` [Example 193, 4-(((3S,4R)-1-((2-cyano-4-(trifluoromethyl)phenyl)sulfonyl)-4-hydroxy-4-((R)-1-hydroxyethyl)pyrrolidin-3-yl)oxy)-2-fluorobenzonitrile] it was 0.1 to 10 nM. Same read-out and setting: in the case of `C[C@@H](O)[C@]1(O)CN(S(=O)(=O)c2ccc(C(F)F)cn2)C[C@@H]1Oc1ccc(C#N)c(F)c1` [Example 211, 4-(((3S,4R)-1-((5-(difluoromethyl)pyridin-2-yl)sulfonyl)-4-hydroxy-4-((R)-1-hydroxyethyl)pyrrolidin-3-yl)oxy)-2-fluorobenzonitrile] it was 10 to 100 nM.

In the case of `N#Cc1ccc(S(=O)(=O)N2C[C@H](Oc3ccc(C#N)c(F)c3)[C@](O)(CO)C2)cc1` [Example 71, 4-(((3S,4R)-1-((4-cyanophenyl)sulfonyl)-4-hydroxy-4-(hydroxymethyl)pyrrolidin-3-yl)oxy)-2-fluorobenzonitrile], the IC50 was 10 to 100 nM. The same measure, in the same setting: in the case of `C#Cc1ccc(S(=O)(=O)N2C[C@H](Oc3ccc(C#N)c(F)c3)[C@](O)(CO)C2)nc1` [Example 228, 4-(((3S,4R)-1-((5-ethynylpyridin-2-yl)sulfonyl)-4-hydroxy-4-(hydroxymethyl)pyrrolidin-3-yl)oxy)-2-fluorobenzonitrile] it was 10 to 100 nM. Same read-out and setting: the same measure for `N#Cc1ccc(O[C@H]2CN(S(=O)(=O)c3ccc(I)cn3)C[C@@]2(O)CO)cc1F` [Example 130, 2-fluoro-4-(((3S,4R)-4-hydroxy-4-(hydroxymethyl)-1-((5-iodopyridin-2-yl)sulfonyl)pyrrolidin-3-yl)oxy)benzonitrile]: 10 to 100 nM; for `COc1cc(C#N)ccc1O[C@H]1CN(S(=O)(=O)c2ccc(C(F)(F)F)cc2C#N)C[C@@]1(O)CO` [Example 10, 2-(((3R,4S)-4-(4-cyano-2-methoxyphenoxy)-3-hydroxy-3-(hydroxymethyl)pyrrolidin-1-yl)sulfonyl)-5-(trifluoromethyl)benzonitrile]: 10 to 100 nM; for `N#Cc1ccc(O[C@H]2CN(S(=O)(=O)c3c(Cl)cc(C(F)(F)F)cc3Cl)C[C@@]2(O)CO)cc1F` [Example 96, 4-(((3S,4R)-1-((2,6-dichloro-4-(trifluoromethyl)phenyl)sulfonyl)-4-hydroxy-4-(hydroxymethyl)pyrrolidin-3-yl)oxy)-2-fluorobenzonitrile]: 10 to 100 nM. The same measure, in the same setting: the same measure for `N#Cc1cc(C(F)(F)F)ccc1S(=O)(=O)N1C[C@H](Oc2ccc(F)c(F)c2)[C@](O)(CO)C1` [Example 25, 2-(((3R,4S)-4-(3,4-difluorophenoxy)-3-hydroxy-3-(hydroxymethyl)pyrrolidin-1-yl)sulfonyl)-5-(trifluoromethyl)benzonitrile]: 0.1 to 10 nM. For the molecule `N#Cc1ccc(O[C@H]2CN(S(=O)(=O)c3ccc(OC(F)(F)F)cc3C#N)C[C@@]2(O)CO)cc1F` [compound 232, 4-(((3S,4R)-1-((2-cyano-4-(trifluoromethoxy)phenyl)sulfonyl)-4-hydroxy-4-(hydroxymethyl)pyrrolidin-3-yl)oxy)-2-fluorobenzonitrile], the IC50 lay within 0.1 to 10 nM. Still for that read-out and setting: in the case of `N#Cc1cc(C(F)(F)F)ccc1S(=O)(=O)N1C[C@H](Oc2ccc(Cl)cc2)[C@](O)(CO)C1` [Example 6, 2-(((3R,4S)-4-(4-chlorophenoxy)-3-hydroxy-3-(hydromethyl)pyrrolidin-1-yl)sulfonyl)-5-(trifluoromethyl)benzonitrile] it was 0.1 to 10 nM; in that of `N#Cc1cc(Cl)ccc1S(=O)(=O)N1C[C@H](Oc2ccc(F)c(F)c2F)[C@](O)(CO)C1` [Example 23, 5-chloro-2-(((3R,4S)-3-hydroxy-3-(hydroxymethyl)-4-(2,3,4-trifluorophenoxy)pyrrolidin-1-yl)sulfonyl)benzonitrile], 0.1 to 10 nM; in that of `O=S(=O)(c1ccc(Cl)cc1Cl)N1C[C@H](Oc2ccc(F)c(F)c2)[C@](O)(CO)C1` [Example 4, (3R,4S)-1-((2,4-dichlorophenyl)sulfonyl)-4-(3,4-difluorophenoxy)-3-(hydroxymethyl)pyrrolidin-3-ol], 10 to 100 nM.

Consider `C[C@@H](O)[C@]1(O)CN(S(=O)(=O)c2ccc(OC(F)F)nc2)C[C@@H]1Oc1ccc(C#N)c(F)c1` [Example 213, 4-(((3S,4R)-1-((6-(difluoromethoxy)pyridin-3-yl)sulfonyl)-4-hydroxy-4-((R)-1-hydroxyethyl)pyrrolidin-3-yl)oxy)-2-fluorobenzonitrile], for which the IC50 fell in the range of 10 to 100 nM. Take `N#Cc1ncccc1S(=O)(=O)N1C[C@H](Oc2ccc(Cl)cc2)[C@](O)(CO)C1` [Example 110, 3-(((3R,4S)-4-(4-chlorophenoxy)-3-hydroxy-3-(hydroxymethyl)pyrrolidin-1-yl)sulfonyl)picolinonitrile]: the IC50 fell in the range of 10 to 100 nM. Still for that read-out and setting: the same measure for `CC(=O)c1ccc(S(=O)(=O)N2C[C@H](Oc3ccc(C#N)c(F)c3)[C@](O)(CO)C2)c(C#N)c1` [Example 72, 4-(((3S,4R)-1-((4-acetyl-2-cyanophenyl)sulfonyl)-4-hydroxy-4-(hydroxymethyl)pyrrolidin-3-yl)oxy)-2-fluorobenzonitrile]: 10 to 100 nM; for `N#Cc1ccc(O[C@H]2CN(S(=O)(=O)c3ccc(Cl)nc3)C[C@@]2(O)CO)cc1F` [Example 91, 4-(((3S,4R)-1-((6-chloropyridin-3-yl)sulfonyl)-4-hydroxy-4-(hydroxymethyl)pyrrolidin-3-yl)oxy)-2-fluorobenzonitrile]: 10 to 100 nM; for `N#Cc1ccc(O[C@H]2CN(S(=O)(=O)c3ccc(Br)cc3)C[C@@]2(O)CO)cc1F` [Example 102, 4-(((3S,4R)-1-((4-bromophenyl)sulfonyl)-4-hydroxy-4-(hydroxymethyl)pyrrolidin-3-yl)oxy)-2-fluorobenzonitrile]: 10 to 100 nM. Same read-out and setting: the same measure for `CC#Cc1ccc(S(=O)(=O)N2C[C@H](Oc3ccc(C#N)c(F)c3)[C@](O)(CO)C2)cc1` [Example 222, 2-fluoro-4-(((3S,4R)-4-hydroxy-4-(hydroxymethyl)-1-((4-(prop-1-yn-1-yl)phenyl)sulfonyl)pyrrolidin-3-yl)oxy)benzonitrile]: 0.1 to 10 nM; for `C[C@H](O)[C@]1(O)CN(S(=O)(=O)c2ccc(C(F)(F)F)cc2C#N)C[C@@H]1Oc1ccc(C#N)c(F)c1` [Example 190, 4-(((3S,4R)-1-((2-cyano-4-(trifluoromethyl)phenyl)sulfonyl)-4-hydroxy-4-(1-hydroxyethyl)pyrrolidin-3-yl)oxy)-2-fluorobenzonitrile]: 0.1 to 10 nM.
